Test results taken from patent publication US20190196073A1, “COMPOSITION, FILM, NEAR INFRARED CUT FILTER, PATTERN FORMING METHOD, LAMINATE, SOLID IMAGE PICKUP ELEMENT, IMAGE DISPLAY DEVICE, CAMERA MODULE, AND INFRARED SENSOR” (FUJIFILM Corporation, priority 2016, published 2019).
≈ marks a conversion by molar mass, not a printed value.

Key:
[1] = Measurement of absorption maximum of near infrared absorbing compound in solution; assay type: physicochemical
Description: In addition, in the present invention, a case where the near infrared absorbing compound “has an absorption maximum in a wavelength range of 650 to 1000 nm” represents the near infrared absorbing compound has a maximum absorbance in a wavelength range of 650 to 1000 nm in an absorption spectrum of the near infrared absorbing compound in a solution. A measurement solvent used for measuring an absorption spectrum of the near infrared absorbing compound in the solution is not particularly limited as long as the near infrared absorbing compound is soluble therein. From the viewpoint of solubility, for example, chloroform, dimethylformamide, tetrahydrofuran, or methylene chloride can be used. For example, in the case of a compound which is soluble in chloroform, chloroform is used as the measurement solvent. In the case of a compound which is not soluble in chloroform, methylene chloride is used. In addition, in the case of a compound which is not soluble in chloroform and methylene chloride, dimethylformamide is used. In addition, in the case of a compound which is not soluble in chloroform, methylene chloride, and dimethylformamide, tetrahydrofuran is used.
<Measurement of Absorption Maximum of Near Infrared Absorbing Compound>
A near infrared absorbing compound shown in the following tables was dissolved in a measurement solvent shown in the following tables to prepare a sample solution. Using a spectrophotometer U-4100 (manufactured by Hitachi High-Technologies Corporation), an absorbance of the sample solution in a wavelength range of 300 to 1300 nm was measured to obtain an absorption maximum.

[2] = physchem; conditions: 25 °C, organic solvent or mixture, thermodynamic from solid
Description: (§1) Under the atmospheric pressure, about 100 mg (a precisely weighed value is represented by X mg) of the near infrared absorbing compound is added to 1 L of propylene glycol methyl ether acetate at 25° C., and the components are stirred for 30 minutes. Next, the solution is left to stand for 5 minutes and then is filtered, and the filtrate is dried under reduced pressure at 80° C. for 2 hours is precisely weighed (a precisely weighed value is represented by Y mg). The solubility of the near infrared absorbing compound dissolved in propylene glycol methyl ether acetate is calculated from the following expression.

[3] = Measurement of solubility of near infrared absorbing compound in propylene glycol methyl ether acetate; conditions: for solubility at 30 min: propylene glycol methyl ether acetate, 25 °C, organic solvent or mixture, thermodynamic from solid
Description: as §1

Molecule | Absorption Maximum ([1]; measurement solvent Chloroform) [nm] | solubility at 30 min [2] [µg/mL] | other results
CCN1/C(=C/C2=C([O-])C(=C/c3sc4c5ccccc5ccc4[n+]3CC)/C2=O)Sc2c1ccc1ccccc21 [Example A-32] | 705 | 0.42 (≈ 0.788 µM) | –
CC1C(/C=C2/C(=O)C(/C=C3/C(C)c4cc(C(N)=O)ccc4N3C)=C2[O-])=[N+](C)c2ccc(C(N)=O)cc21 (stereo not drawn) [Example A-26] | 665 | 11.2 (≈ 23.2 µM) | –
CCOc1ccc(OCC)c2c1C1=NC/2=N\c2c3c(OCC)ccc(OCC)c3c3[n]2[Zn][n]2/c(c4c(OCC)ccc(OCC)c4/c2=N/C2=NC(=N\3)/c3c(OCC)ccc(OCC)c32)=N\1 [Example A-6] | 744 | – | solubility at 30 min [3]: 15.5 µg/mL
O=C1c2ccc3c4ccc5c6ccc7c8ccc9c%10c(ccc(c%11ccc(c%12ccc(c%13ccc(c2c3%13)C(=O)N1c1ccccc1)c4c5%12)c6c7%11)c%108)C(=O)N(c1ccccc1)C9=O [Example A-2] | – | – | Absorption Maximum ([1]; measurement solvent Methylene Chloride): 765 nm; solubility at 30 min [3]: 0.64 µg/mL (≈ 0.809 µM)
O=C1C(c2ccc(N3CCCCC3)cc2NC(=O)C(F)(F)F)=C([O-])/C1=C1\C=CC(=[N+]2CCCCC2)C=C1NC(=O)C(F)(F)F [Example A-39] | 698 | 2.68 (≈ 4.3 µM) | –
O=C1C(=C2C(O)=CC(=[N+]3c4ccccc4-c4ccccc43)C=C2O)C([O-])=C1c1c(O)cc(-n2c3ccccc3c3ccccc32)cc1O [Example A-38] | 750 | 0.88 (≈ 1.4 µM) | –
CCNC(=O)NC1=CC(=[N+](CC)CC)C=C/C1=C1/C(=O)C(c2ccc(N(CC)CC)cc2NC(=O)NCC)=C1[O-] [Example A-25] | 680 | 2.51 (≈ 4.57 µM) | –
O=C1C2=C(c3cnc4ccccc4n3)N(B(c3ccccc3)c3ccccc3)C(=O)C2=C(c2cnc3ccccc3n2)N1B(c1ccccc1)c1ccccc1 [Example A-21] | 710 | 5.47 (≈ 7.59 µM) | –
CCCCCCCC(CCCCCCC)N1C(=O)c2ccc3c4ccc5c6ccc7c8ccc9c%10c(ccc(c%11ccc(c%12ccc(c%13ccc(c2c3%13)C1=O)c4c5%12)c6c7%11)c%108)C(=O)N(C(CCCCCCC)CCCCCCC)C9=O [AR-4, reference compound] | 765 | – | solubility at 30 min [3]: 32.1 µg/mL (≈ 30.3 µM)
CCN(CC)c1cc2[nH]c(=O)c3ccc(cc3)c(=O)[nH]c3cc(=[N+](CC)CC)c(C)cc3c3c([O-])c(c3=O)c2cc1C [Example A-36] | 715 | 4.29 (≈ 7.6 µM) | –
C/C(C1=C(O)/C(=C(/C)C2=Nc3ccccc3C2CCN)C1=O)=C1/Nc2ccccc2C1CCN (stereo not drawn) [Example A-28] | 737 | 1.92 (≈ 4.22 µM) | –
CCOC(=O)NC1=CC(=[N+](CC)CC)C=C/C1=C1/C(=O)C(c2ccc(N(CC)CC)cc2NC(=O)OCC)=C1[O-] [Example A-34] | 680 | 7.72 (≈ 14 µM) | –
CC1N(C)c2cc(NC(=O)CSC(=N)N)c(C3=C([O-])/C(=c4\cc5c(cc4NC(=O)CSC(=N)N)=[N+](C)C(C)C5(C)C)C3=O)cc2C1(C)C (stereo not drawn) [Example A-23] | 708 | 5.62 (≈ 8.13 µM) | –
CC1(C)c2ccccc2N(c2cc(O)c(C3=C([O-])C(=C4C(O)=CC(=[N+]5c6ccccc6C(C)(C)c6ccccc65)C=C4O)C3=O)c(O)c2)c2ccccc21 [Example A-37] | 675 | 0.65 (≈ 0.912 µM) | –
CC1=CC(=[N+](c2ccccc2)c2ccccc2)S/C1=C1/C(=O)C(c2sc(N(c3ccccc3)c3ccccc3)cc2C)=C1[O-] [Example A-40] | 706 | 11.2 (≈ 18.4 µM) | –
c1ccc2cc3c(cc2c1)C1=NC3=Nc2c3cc4ccccc4cc3c3[n]2[Cu][n]2c(c4cc5ccccc5cc4c2=NC2=NC(=N3)c3cc4ccccc4cc32)=N1 [Example A-3] | 775 | – | Solubility ([3]; in propylene glycol methyl ether acetate at 25° C., about 100 mg added to 1 L): 0.33 µg/mL
CCN1/C(=C/C2=C([O-])C(=C\c3sc4ccccc4[n+]3CC)/C(=O)C2=O)Sc2ccccc21 [Example A-43] | 848 | 2.22 (≈ 4.82 µM) | –
NC(=O)c1cccc(N2C(=O)NC(=O)/C(=C/C=C(/C=C/c3c([O-])[nH]c(=O)n(-c4cccc(C(N)=O)c4)c3=O)c3ccccc3)C2=O)c1.[K+] [Example A-4] | – | – | Absorption Maximum ([1]; measurement solvent Dimethylformamide): 740 nm; solubility at 30 min [3]: 5.82 µg/mL
CNC(=O)Nc1cc(N2CCCC2)c(C)cc1C1=C([O-])/C(=c2\cc3c4c(c2NC(=O)NC)CCC[N+]=4CCC3)C1=O [Example A-41] | 710 | 0.94 (≈ 1.69 µM) | –
O=C1C(c2ccc3cccc4c3c2NB(c2ccc(O)cc2)N4)=C(O)/C1=c1/ccc2cccc3c2c1=NB(c1ccc(O)cc1)N3 [Example A-31] | 823 | 7.69 (≈ 12.9 µM) | –
NC(=O)C1N=c2/c(=C3/C(=O)C(c4ccc5cccc6c5c4NC(C(N)=O)N6)=C3O)ccc3cccc(c23)N1 (stereo not drawn) [Example A-29] | 810 | 0.57 (≈ 1.13 µM) | –
CC(=O)NC1CCC2(CC1)N=c1/c(=C3/C(=O)C(c4ccc5cccc6c5c4NC4(CCC(NC(C)=O)CC4)N6)=C3O)ccc3cccc(c13)N2 (stereo not drawn) [Example A-27] | 810 | 6.74 (≈ 10.1 µM) | –
4,5-octakis(phenylthio)-3,6-{tetrakis(2,6-dimethylphenoxy)-tetrakis(n-hexyamino)}copper phthalocyanine [AR-1, reference compound] | 780 | – | –
CC(=O)NC1=CC(=[N+]2CCCC2)C(C)=C/C1=C1/C(=O)C(c2cc(C)c(N3CCCC3)cc2NC(C)=O)=C1[O-] [Example A-35] | 700 | 5.11 (≈ 9.93 µM) | –
O=C1C(c2ccc(N(c3ccccc3)c3ccccc3)cc2NS(=O)(=O)C(F)(F)F)=C(O)/C1=C1/C=CC(N(c2ccccc2)c2ccccc2)=C/C1=N\S(=O)(=O)C(F)(F)F [Example A-30] | 737 | 3.58 (≈ 4.15 µM) | –
CC1N(C)c2cc(NC(=O)c3ccc4c(c3)C(=O)N(C)C4=O)c(C3=C([O-])/C(=c4\cc5c(cc4NC(=O)c4ccc6c(c4)C(=O)N(C)C6=O)=[N+](C)C(C)C5(C)C)C3=O)cc2C1(C)C (stereo not drawn) [Example A-24] | 711 | 7.88 (≈ 9.46 µM) | –
